{"source": "patent US7563862B2", "about": "“Neural regeneration peptides and methods for their use in treatment of brain damage” (Neuren Pharmaceuticals Limited, priority 2001, dated 2009)", "key": {"neural stem cells": {"test_system": "neural stem cells", "assay": "neural stem cell differentiation assay, neuronal differentiation and axonal outgrowth", "type": "cell-based, mouse", "experimental": "Neural stem cells were derived from E15 C3H mice forebrain and cultured as neurospheres in the presence of 20 ng/ml EGF and 10 ng/ml bFGF as described in Gritti et al. (2001). Briefly, timed pregnant mice were sacrificed and the embryos removed. Under sterile conditions the brains were removed and the forebrains dissected. The tissue was dissociated by trituration and pelleted by 75 g centrifugation for 10 minutes and the cells seeded in non-coated tissue culture flasks in NSA medium with growth factors. For passaging neurospheres were triturated and seeded as single cells.\nUpon reaching a sufficient size, neurospheres were dissociated by trituration and plated at a density of 200,000 cells per well on laminin-coated 13 mm diameter coverslips that had been placed in Nunc 24 well plates. The plating medium was a 1:1 mixture of DMEM/F12 supplemented with N2 and Neurobasal supplemented with B27 and 2 mM glutamine. To enhance survival after plating the medium contained 2 ng/ml bFGF. After 24 h the medium was replaced with a neuronal differentiation-promoting medium (1:3 mixture of DMEM/F12 supplemented with N2 and Neurobasal supplemented with B27 and 2 mM glutamine) and except for the controls the test compound or IGF-1 was added simultaneously. The medium with fresh compound was exchanged every other day. Seven days after plating the differentiating cells were incubated for 20 minutes in differentiation medium containing 100 ng/ml Syto21 to label the nuclei of viable cells. Subsequently, they were fixed with 4% paraformaldehyde and immunostained with a mouse anti-βIII tubulin antibody and a goat anti-mouse Cy3-coupled secondary antibody.\nAfter staining the coverslips were removed from the tissue culture plate and mounted on […], using Immunofluore fluorescent mounting medium. To analyse the percentage of neurons of total cells, with a Zeiss axiophot microscope, equipped with Axoivision software, at 20× magnification images of two random fields per well were taken in the red (tubulin stained neurons) and green (Syto21 stained nuclei) fluorescent channel. Neurons and nuclei per field were counted and the neuronal percentage of total cell number determined."}, "[1]": {"test_system": "OTCs of rat embryonic forebrain", "assay": "embryonic forebrain OTC migration assay (medial ganglionic eminence to cortical anlage)", "type": "cell-based", "experimental": "OTCs of rat embryonic forebrain were prepared as described. Briefly, pregnant rats at E17 gestation were sacrificed, the fetuses rapidly removed. Coronal slices of the forebrain were cut at 400 μm thickness and placed onto millicell PICM ORG50 membranes (Millipore) in 3 cm Petri dishes containing 1 ml of DMEMI/F12, 6.5 mg/ml glucose, 0.1 mM glutamine and 10% FCS for 34 hrs. Afterwards the medium was exchanged to 1 ml Neurobasal/B27, 6.5 mg/ml glucose, 0.1 mM glutamine, to which 10 μl PBS, NRP, or SDF-1 were added for the indicated concentrations and a small DiI (1,1′-dioctodecycyl-3,3,3′3-tetramethylindocarbocyanine) crystal of uniform size was placed in the medial ganglionic eminence (n=10-15) under a stereomicroscope. After 24 hrs cultivation the total number or migrated neurons dispersed in the ganglionic eminence and cortex were counted under an inverted fluorescent microscope."}, "[2]": {"test_system": "un-injured cerebellar microexplants", "assay": "proliferation induction without injury, cerebellar microexplants", "type": "cell-based, rat", "experimental": "FIG. 17 depicts results of proliferation induction without injury using NRP-2 segment KG (SEQ ID NO: 18) and rat NRP-1 (SEQ ID NO: 2). Peptides were administered 24hrs after start of cultivation to decrease interference in the assay due to initial neuronal survival or adherence effects. The cultures were fixed after 3 days in vitro. There was neuronal proliferation seen at 300 μM of NRP-2 segment KG (SEQ ID NO: 18).\nWithin the applied proliferation assay rat NRP-1 (SEQ ID NO:2) and NRP-2KS (SEQ ID NO:23) were tested for neuronal proliferation inducing activity (see FIG. 19). In order to discriminate proliferation from increased survival and cellular adhesion properties, NRP-2 KS (SEQ ID NO:23) was administered 24 hrs after the start of cultivation. Rat NRP-1(SEQ ID NO:2) had specific effects on neuronal proliferation, (see FIGS. 7, 9 and 10). Neuronal proliferation induced by NRP-2KS (SEQ ID NO:23) occurred within a range of about 0.3-30 nM using un-injured cerebellar microexplants (verified by counting cells displaying neurite outgrowth)."}, "MEB-5 cells": {"test_system": "MEB-5 cells", "assay": "haptotactic migration assay, MEB-5 cells", "type": "cell-based, mouse", "settings": "1 ng/ml coating, 200,000 cells", "experimental": "NRPs were tested for migration-inducing/chemoattractive activity on mouse neural stem cells, EGF-dependent immortalized mouse neural stem cell line MEB5 and wild-type PC-12 cells in a haptotactic migration assay as described below.\nInitial NRP Coating. Control wells of Transwell plates (Coming) with 12 μm pore size were coated in 1.5 ml of the BSA/PBS vehicle. Remaining plates were coated using various concentrations of NRPs ranging between 1-100 ng/ml (prepared in PBS containing 10 ug/ml BSA). The plates were then incubated at 37° C. for 1 hr to coat. Wells were then rinsed 2× with 1 ml sterile PBS.\nLaminin ([…]) for MEB-5 cells, PDL (50 μg/ml)+Matrigel for mouse primary stem cells and fibronectin (25 ug/ml)+matrigel for PC-12 cells were used as extracellular matrix (ECM) coating for the cells. All ECM compounds were diluted in PBS. 1.5 ml of the ECM per well was incubated for 2 hrs at room temperature. The wells were then rinsed once with Iml serum-free media (e.g. NB/B27) followed by 1 ml PBS wash.\nA 5 ug/mL PDL/PLL mixture (in PBS) was used to coat inserts. Subsequently the inserts were rinsed with MilliQ water. […]"}}, "note": "Ends that are not written are not given here.", "data": [{"substance": "SEPEARRAPGRKGGVVCASLAADW-NH2 [NRP-7 segment SW, 24-mer form of mouse NRP-7]", "values": [{"measurement": "maximum increase in beta-III-tubulin-positive neurons", "setting": "neural stem cells; 10 pM, 7 days differentiation", "result": 2, "unit": "fold"}, {"measurement": "axonal outgrowth-promoting activity", "setting": "neural stem cells; 7 days differentiation", "result": "maximum activity for an increase in axonal length growth lies in the upper nanomolar range"}, {"measurement": "increase in number of migrating neuronal precursor cells", "setting": "[1]", "result": 5, "unit": "fold"}, {"measurement": "optimum dose", "setting": "[1]", "result": 1, "unit": "nM"}]}, {"substance": "NRP-1: rat 16 amino acid neural regeneration peptide purified from hippocampal OTC supernatant, Tyr Asp Pro Glu ... Cys His-NH2 (YDPEAASAPGSGNPCH-NH2)", "values": [{"measurement": "concentration of greatest effect on neuronal proliferation", "setting": "[2]", "result": 3, "unit": "nM"}, {"measurement": "up regulation of neuronal cell proliferation", "setting": "[2]; 3 nM", "result": 81.2, "unit": "%"}]}, {"substance": "KDPEARRAPGSLHPCLAAS-NH2 [NRP-2 segment KS, 19-mer fragment of NRP-2]", "values": [{"measurement": "increased neuronal cell proliferation, greater than vehicle-treated controls", "setting": "[2]; 300 μM", "result": 117.5, "unit": "%"}, {"measurement": "concentration range of induced neuronal proliferation", "setting": "[2]; peptide 24 hrs after start of cultivation", "result": "0.3 to 30", "unit": "nM"}, {"measurement": "more MEB-5 cells migrated compared with BSA-vehicle", "setting": "MEB-5 cells", "result": 109, "unit": "%"}, {"measurement": "maximum increase in beta-III-tubulin-positive neurons", "setting": "neural stem cells; 1 0nM, 7 days differentiation", "result": 2, "unit": "fold"}, {"measurement": "proliferation rate during differentiation of NSC", "setting": "neural stem cells; together with BrdU for 24 hrs", "result": "an increase in the proliferation rate"}]}]}
